Measured values as given in patent US10159656B2, “Methods for use of epinephrine fine particles for treatment of conditions responsive to epinephrine” (NOVA SOUTHEASTERN UNIVERSITY, priority 2013, dated 2018).

Legend:
[1] = one cycle at 30,000 Psi
Protocol: Also, the processed EpiBit were tested for purity, stability, and crystallinity changes using Differential Scanning calorimetry (DSC) 4000 (PerkinElmer, Waltham, Mass.) that was calibrated using an indium standard and heated from 30 to 300° C. at rate of 10° C./min and with a nitrogen purge of 20 mL/min.

[2] = one cycle at 30,000 Psi; remark: listed apart in the source
Protocol: The processed EpiBit were tested for stability and removal of isopropyl alcohol using FT-IR spectrometer, spectrum 100 (PerkinElmer, Waltham, Mass.) scanned from 4000-650 cm^−1.

[3] = after processing, one cycle at 30,000 Psi
[4] = Protocol: The average particles size (by volume) of EpiBit before processing was measured using laser diffraction technique using Mastersizer (Malvern Instruments Inc, Westborough, Mass.).
[5] = EpiBit before processing, by volume, n=6, text
[6] = EpiBit before processing, by volume, listed as EpiBit crystals before processing

Row | SMILES | degradation or crystallinity change after processing (DSC) [1] | degradation after processing (FT-IR spectra before and after) [2] | particles size distribution by intensity ([3]; n=3) [μm] | particles size distribution by volume ([3]; n=3) [μm] | Z-potential ([3]; listed as EpiBit crystals after processing) [mV] | 10th percentile (Dv0.1) particle size [4, 5] [nm] | median (Dv0.5) particle size [4, 5] [nm] | D (4, 3) mean volume particle size [4, 6] [μm] | D(0.9) particle size [4, 6] [μm] | reduction of particles size of EpiBit crystals ([4]; after versus before processing)
1 | CNC[C@H](O)c1ccc(O)c(O)c1.O=C(O)C(O)C(O)C(=O)O [EpiBit After Processing, epinephrine bitartrate microcrystals] | no evidence of EpiBit degradation or crystallinity change after processing | no evidence of EpiBit degradation after processing | 2.4±0.4 | 2.5±0.4 | −4.5±1.4 |  |  |  |  | 
2 | CNC[C@H](O)c1ccc(O)c(O)c1.O=C(O)C(O)C(O)C(=O)O [EpiBit Before Processing, (−)-Epinephrine (+) bitartrate] |  |  |  |  |  | 39.8±3.0 | 113.6±9.1 | 131.8±10.5 | 254.8±20.1 | up to 55 folds
